Reference: the C3SDB collision cross section collection
Counter-ions that a name gives are not always drawn.

Key:
[1] = instrument: DT, stepped-field
[2] = instrument: DT, single field, calibrated with Agilent tune mix (Agilent)

Structure (SMILES) | collision cross section (N2) ([2]; [M+H]+) | collision cross section (N2) ([2]; [M-H]-) | further results
Nc1ncnc2c1ncn2[C@H]1C[C@H](O)[C@@H](CO)O1 [2'-Deoxyadenosine] | – | – | collision cross section (N2) ([1]; [M+H]+): 162.73 Å²; collision cross section (N2) ([1]; [M+Na]+): 166.67 Å²
N[C@@H](Cc1ccccc1Cl)C(=O)O [2-Chloro-L-Phenylalanine] | – | – | collision cross section (N2) ([1]; [M+H]+): 148.86 Å²
Cc1ccccc1C(=O)NCC(=O)O [2-Methylhippuric Acid] | – | – | collision cross section (N2) ([1]; [M+Na]+): 156.6 Å²
CC(C)=CC(=O)SCCNC(=O)CCNC(=O)C(O)C(C)(C)COP(=O)(O)OP(=O)(O)OC[C@H]1O[C@@H](n2cnc3c(N)ncnc32)[C@H](O)[C@@H]1OP(=O)(O)O (some centres not stated) [3-Methylcrotonyl-CoA] | – | – | collision cross section (N2) ([1]; [M+H]+): 180.03 Å²
CC(=O)NCCCC(=O)O [4-Acetamidobutanoic Acid] | – | – | collision cross section (N2) ([1]; [M+Na]+): 138.57 Å²
NC(N)=NCCCC(=O)O [4-Guanidinobutanoic Acid] | – | – | collision cross section (N2) ([1]; [M+H]+): 132.8 Å²
N[C@@H](Cc1c[nH]c2ccc(O)cc12)C(=O)O [5-Hydroxy-L-Tryptophan] | – | – | collision cross section (N2) ([1]; [M+H]+): 157.88 Å²; collision cross section (N2) ([1]; [M+Na]+): 156.47 Å²
C[C@@H]1OC(O)[C@@H](O)[C@H](O)[C@@H]1O (stereo partly drawn) [6-Deoxy-L-galactose] | – | – | collision cross section (N2) ([1]; [M+Na]+): 147.32 Å²
O=C(O)c1ccc(=O)[nH]c1 [6-Hydroxynicotinate] | – | – | collision cross section (N2) ([1]; [M+H]+): 136.43 Å²
O=C(O)[C@H](O)[C@@H](O)[C@H](O)[C@H](O)COP(=O)(O)O [6-Phosphogluconic Acid] | – | – | collision cross section (N2) ([1]; [M+Na]+): 167.16 Å²
CCCCC/C=C\C=C\C(O)CCCCCCCC(=O)O (configuration not stated) [9-HODE] | – | – | collision cross section (N2) ([1]; [M+Na]+): 189.14 Å²
CCCCCC(=O)/C=C/C=C/CCCCCCCC(=O)O [13-OxoODE] | – | – | collision cross section (N2) ([1]; [M+H]+): 179.4 Å²; collision cross section (N2) ([1]; [M+Na]+): 193.37 Å²
CCCCCC1OC1C/C=C\C/C=C\C/C=C\CCCC(=O)O (configuration not stated) [14(15)-EET] | – | – | collision cross section (N2) ([1]; [M+H]+): 182.43 Å²; collision cross section (N2) ([1]; [M+Na]+): 187.07 Å²
CCCCCCCCCCCCCCCCCC(=O)OC[C@@H](O)COP(=O)([O-])OCC[N+](C)(C)C [18:0 Lyso PC] | – | – | collision cross section (N2) ([1]; [M+Na]+): 243.07 Å²
CCOCN(C(=O)CCl)c1c(C)cccc1CC [Acetochlor] | – | – | collision cross section (N2) ([1]; [M+H]+): 160.09 Å²; collision cross section (N2) ([1]; [M+Na]+): 174.6 Å²
CC(=O)Oc1ccccc1C(=O)O [Acetylsalicylic Acid] | – | – | collision cross section (N2) ([1]; [M+Na]+): 146.8 Å²
CC[C@H](C)[C@@H]1NC(=O)[C@H](Cc2ccc(O)cc2)NC(=O)[C@@H](N)CSSC[C@@H](C(=O)N2CCC[C@H]2C(=O)N[C@@H](CC(C)C)C(=O)NCC(N)=O)NC(=O)[C@H](CC(N)=O)NC(=O)[C@H](CCC(N)=O)NC1=O [Oxytocin] | 303.8 Å² | 294.98 Å² | –
CCCCCCCCCCCCCCCC=O [Palmitaldehyde] | – | 163.36 Å² | –
O=C(O)CNC(=O)Cc1ccccc1 [Phenylacetylglycine] | – | 147.23 Å² | –
CC1=C(C/C=C(\C)CCC[C@H](C)CCC[C@H](C)CCCC(C)C)C(=O)c2ccccc2C1=O [Phylloquinone] | 217.3 Å² | 211.81 Å² | –
CC(C)CCCC(C)CCCC(C)CCCC(C)CC(=O)O (configuration not stated) [Phytanic acid] | – | 183.17 Å² | –
CCCCCCCCCCCCCC[C@@H](O)[C@@H](O)[C@@H](N)CO [Phytosphingosine] | 196.2 Å² | 180.68 Å² | –
CC(C)CCCC(C)CCCC(C)CCCC(C)C(=O)O (configuration not stated) [Pristanic acid] | – | 178.79 Å² | collision cross section (N2) ([2]; [M+Na]+): 206.3 Å²
CCCCC[C@H](O)/C=C/[C@H]1[C@H](O)CC(=O)[C@@H]1CCCCCCC(=O)O [Prostaglandin E1] | – | – | collision cross section (N2) ([2]; [M+Na]+): 198.3 Å²; collision cross section (N2) ([2]; [M-H2O-H]-): 181.94 Å²
C=Cc1c(C)c2cc3[nH]c(cc4nc(cc5nc(cc1[nH]2)C(C)=C5CCC(=O)O)C(CCC(=O)O)=C4C)c(C)c3C=C [Protoporphyrin IX] | 241.4 Å² | 245.23 Å² | –
N#C[C@H](O[C@@H]1O[C@H](CO)[C@@H](O)[C@H](O)[C@H]1O)c1ccccc1 [Prunasin] | – | – | collision cross section (N2) ([2]; [M+Na]+): 173.7 Å²
Cc1ncc(COP(=O)(O)O)c(C=O)c1O [Pyridoxal 5'-phosphate] | 151.4 Å² | 146.34 Å² | –

Structure (SMILES) | collision cross section (N2) ([2]; [M+H]+) | collision cross section (N2) ([2]; [M-H]-) | further results
O=C(O)C1(O)C[C@@H](O)C(O)[C@H](O)C1 (some centres not stated) [Quinate] | – | 132.25 Å² | collision cross section (N2) ([2]; [M+Na]+): 150.9 Å²
OC[C@@H](O)C(O)[C@@H](O)CO (some centres not stated) [Ribitol] | – | – | collision cross section (N2) ([2]; [M+Na]+): 136.3 Å²
Cc1cn([C@@H]2O[C@H](CO)[C@@H](O)[C@H]2O)c(=O)[nH]c1=O [Ribothymidine] | – | 153.52 Å² | collision cross section (N2) ([2]; [M+Na]+): 165.6 Å²
O=C(/C=C/c1ccc(O)c(O)c1)O[C@H](Cc1ccc(O)c(O)c1)C(=O)O [Rosmarinic Acid] | – | 170.26 Å² | collision cross section (N2) ([2]; [M+Na]+): 195.6 Å²
COc1cc(/C=C/CO)cc(OC)c1O [Sinapyl alcohol] | – | 146.84 Å² | collision cross section (N2) ([2]; [M+H-H2O]+): 136.5 Å²
NCCCNCCCCNCCCN [Spermine] | 148.2 Å² | – | –
CCCCCCCCCCCCCCC[C@@H](O)[C@@H](N)CO [Sphinganine] | 188 Å² | – | –
CCCCCCCCCCCCC/C=C/[C@@H](O)[C@@H](N)CO [Sphingosine] | 186 Å² | – | –
CCCCCCCCCCCCCCCCCC(=O)SCCNC(=O)CCNC(=O)[C@H](O)C(C)(C)COP(=O)(O)OP(=O)(O)OC[C@H]1O[C@@H](n2cnc3c(N)ncnc32)[C@H](O)[C@@H]1OP(=O)(O)O [Stearoyl-CoA] | 302.9 Å² | 301.81 Å² | –
CNCC(O)c1ccc(O)cc1 (configuration not stated) [Synephrine] | – | – | collision cross section (N2) ([2]; [M+H-H2O]+): 134.4 Å²
CCCCCCCCCCCCCCCCCCCCCCCC(=O)O [Tetracosanoic acid] | – | 197.93 Å² | –
Cc1ncc(C[n+]2csc(CCO)c2C)c(N)n1 [Thiamine] | 162.4 Å² | 160.3 Å² | –
CC(=O)N[C@H]1[C@@H](OP(=O)(O)OP(=O)(O)OC[C@H]2O[C@@H](n3ccc(=O)[nH]c3=O)[C@H](O)[C@@H]2O)O[C@H](CO)[C@@H](O)[C@@H]1O [UDP-N-acetylglucosamine] | 208.8 Å² | 222 Å² | –
O=c1ccn([C@@H]2O[C@H](COP(=O)(O)OP(=O)(O)OP(=O)(O)O)[C@@H](O)[C@H]2O)c(=O)[nH]1 [Uridine 5'-triphosphate] | – | 178.55 Å² | –
O=C(O)CCC1=C(CC(=O)O)c2cc3nc(cc4[nH]c(cc5[nH]c(cc1n2)c(CC(=O)O)c5CCC(=O)O)c(CC(=O)O)c4CCC(=O)O)C(CC(=O)O)=C3CCC(=O)O [Uroporphyrin I] | 285.1 Å² | 267.79 Å² | –
COc1cc(C=O)ccc1O [Vanillin] | 129.7 Å² | 124.3 Å² | –
CC1=C(C/C=C(\C)CCC[C@H](C)CCC[C@H](C)CCCC(C)C)C(=O)c2ccccc2C1=O [Vitamin K1] | 216.1 Å² | 210.94 Å² | –
O=C(O)c1cc(=O)c2cccc(O)c2[nH]1 [Xanthurenic acid] | 140.5 Å² | 132.51 Å² | –
CC/C=C\C/C=C\C/C=C\CCCCCCCC(=O)O [alpha-Linolenic acid] | 170.7 Å² | 173.07 Å² | –
Cc1c(C)c2c(c(C)c1O)CC[C@@](C)(CCC[C@H](C)CCC[C@H](C)CCCC(C)C)O2 [alpha-Tocopherol] | 216.6 Å² | 208.52 Å² | –
Nc1nc(=O)c2ncn([C@@H]3O[C@@H]4COP(=O)(O)O[C@H]4[C@H]3O)c2[nH]1 [cGMP] | 172.8 Å² | – | –
O=C(O)[C@H]1C[C@@H](O)CN1 [cis-4-Hydroxy-D-proline] | 128.4 Å² | 122.02 Å² | –
N[C@@H](CCC(=O)N[C@@H](CCC(=O)O)C(=O)O)C(=O)O [gamma-L-Glutamyl-L-glutamic acid] | 162.6 Å² | – | collision cross section (N2) ([2]; [M-H2O-H]-): 152.43 Å²
OC1C(O)C(O)C(O)C(O)C1O (configuration not stated) [myo-Inositol] | – | 128.61 Å² | collision cross section (N2) ([2]; [M+Na]+): 148.2 Å²
CC(=O)[C@H]1CC[C@H]2[C@@H]3CC=C4C[C@@H](OS(=O)(=O)O)CC[C@]4(C)[C@H]3CC[C@]12C [pregnenolone sulfate] | – | 203.91 Å² | –
CCCCC/C=C/C(=O)O [trans-2-Octenoic acid] | – | 141.13 Å² | –
O=C(O)/C=C/c1ccccc1 [trans-cinnamate] | 125.3 Å² | – | –
